# Measurements reported in patent US7341991B2, “Inhibitors of amyloid precursor protein processing” (Posco, priority 2004, dated 2008).
# “Also recorded” adds a separate entry of the source. Where no end group is shown, it is not given here.
# Key:
# [1] = system: γ-secretase cleavage in KEK293 APP cells; assay: Cell based γ-secretase assay (α-CTF, Western); set-up: species or system human; details: 9 hours treatment, α-CTF accumulation
# Description: In order to test these peptides in the cell for their inhibitory effect on γ-secretase cleavage, a cell based assay was developed. After KEK293 APP cells were cultured in 6 well culture plates with 90% confluency, the cells were treated for 9 hours with N-[N-(3,5-difluorophenacetyl)-L-alanyl]-(S)-phenylglycine t-butyl ester (DAPT) (Dovey H F et al, J. Neurochemistry 2001; 76:173-181), which is a known γ-secretase inhibitor, and complementary peptides. The cells in each well were lysed and these lysates were separated with 15% tris-tricine gel. Western analysis was performed with R1 antibody as primary antibody and goat anti-rabbit-HRP as secondary antibody.
# [2] = target: T1, Substrate W (SEVKMDAEFR, β-secretase cleavage site of wild type APP) (Homo sapiens, UniProt P05067); assay: Binding of biotin-labeled Substrate W to immobilized complementary (HC) peptides
# T1 construct: purchased Peptron, Inc; host or cells: chemical synthesis
# Description: (§1) Complementary peptides (0.2, 2, 20, and 200 μM) were dissolved in phosphate buffered saline (PBS) (pH 7.4) and fixed to microtiter wells for 5 hr at 37° C. The wells were blocked with blocking buffer (3% BSA/PBS) for 1 hr at 37° C. Either N-terminally biotinylated Substrate W or M (20 μM) in blocking buffer was added and incubated for overnight at 4° C. Streptavidin-horseradish peroxidase in blocking buffer was added to detect resulting bound substrates. The plate was incubated for 2 hr at room temperature (RT), followed by addition of 3, 3′, 5,5′-tetramethyl-benzidine (TMB) as substrate for horseradish peroxidase for color reaction.
# In particular, for Substrate W, complementary peptides (200 μM) dissolved in phosphate buffered saline (PBS) (pH 7.4) were chemically coupled to Reacti-Bind Maleic Anhydride Activated Polystyrene wells (Pierce Biotechnology, Inc.) for overnight at room temperature (RT). Remaining active sites of the plate were inactivated by adding ethanolamine (1 M) for 1 hr at RT. The wells were blocked with blocking buffer (3% BSA/PBS) for 1 hr at RT. N-terminally biotinylated Substrate W (20 μM) in blocking buffer was added and incubated for 3 hr at RT. Streptavidin-horseradish peroxidase in blocking buffer was added to detect resulting bound substrates. The plate was incubated for 2 hr at room temperature (RT), followed by addition of 3,3′,5,5′-tetramethyl-benzidine (TMB) as substrate for horseradish peroxidase for color reaction.
# (§2) Reacti-Bind™ maleic anhydride-activated polystyrene plate (Pierce, IL, USA) was coated with 50 μl of HC peptide (200 μM in distilled water) by chemical coupling for 3 h at room temperature (RT) and washed three times with phosphate buffered saline (PBS) containing 0.05% tween 20 (PBST). The plate was blocked with blocking buffer (0.5% gelatin in PBS) for 1 h at RT. After discarding blocking buffer, biotinylated BACE1 substrates (200 μM) in blocking buffer was applied on the plate and incubated for 2.5 h at RT. Each well was washed three times with PBST. The bound biotinylated BACE1 substrates were detected by incubation with streptavidin-horseradish peroxidase (Str-HRP, 125 mU/ml in blocking buffer) for 2 h at RT. Color reaction was carried out with 50 μl of 3,3′,5,5′-Tetramethylbenzidine Liquid Substrate (Sigma-Aldrich, MO, USA). After stopping the reaction by addition of an equal volume of 1 N HCl, absorbance at 450 nm was read in an automated ELISA reader (EL 312e, Bio-Tek Instruments, VT, USA). All assays were carried out in duplicate.
# [3] = system: APP processing in HEK293-APP cells; assay: Cell based assay of APP processing (βCTF, Western blot) in HEK293-APP cells; set-up: species or system human; details: βCTF
# Description: In the neuronal cells of the brain, APP is processed by α-secretase or β-secretase. To investigate the effects of the inhibitors on the cell, a cell based assay system was developed as described in FIG. 10. C-terminal fragment of APP remaining on the cell membrane was detected by Western blot. The resulting C-terminal fragments, αCTF or βCTF are further processed by γ-secretase. However, if the cells are treated with the γ-secretase inhibitor, this processing is blocked. As a result, αCTF or βCTF accumulate in the cell. If β-secretase inhibitor or APP inhibitor is added, this processing is blocked and βCTF disappears.
# To test APP inhibitor activities in cells, three complementary peptides, c-Sub M, c-Sub MΔC6, and c-Sub MΔN1C1, which show high absorbance in binding test, were added to whole cell extracts of HEK293-APP cells (Lanes 2, 3, and 4 in FIG. 11). In addition, γ-secretase inhibitor and cholesterol were added to the cells to increase βCTF level. Commercially available peptide-based β-secretase inhibitor was included as control (Lane 6, FIG. 11). To detect the N-terminal fragment of β-amyloid which is a product of APP processing, 6E10 antibody was employed. […] Recently, it has been reported that the commercially available peptide-based inhibitor had to be linked to an oligoarginine transporter peptide to have inhibitory activity against cells. Therefore, mimetic approach is adopted to produce cell permeable analogs. (Chang et al. J. Neurochemistry 2004; 89:1409-1416).
# After confirming the ability of the oligo-arginine coupled APP inhibitors to enter the cells, the inhibitors were applied to HEK293-APP cells overexpressing APP to test their inhibitory activities on APP processing. […] This inhibitor started to show significant inhibitory activity beginning from 0.1 μM (lower panel).
# [4] = system: Substrate M (SEVNLDAEFR, β-secretase cleavage site of APPsw); assay: Binding of biotin-labeled Substrate M to immobilized complementary (HC) peptides; details: biotin-labeled Sub M, peptide immobilized on plate
# Description: as §1, §2
# [5] = system: cleavage of Substrate M by rhBACE (recombinant human β-secretase); assay: Fluorometric (FRET) assay for cleavage of F-Substrate M by β-secretase; type: biochemical; details: for inhibitory activity group on Substrate M cleavage: tested at various concentrations (FIG. 8)
# Description: This assay system utilizes fluorescence resonance energy transfer (FRET) technology. Substrate M was synthesized with two fluorophores, a fluorescent donor and a proprietary quenching acceptor (purchased from a commercial source, R&D Systems). […] Upon cleavage of substrate by β-secretase, the fluorophore is separated from the quenching group, restoring the full fluorescence yield of donor.
# Substrate labeled with fluorophores will be called F-Substrate M (R&D Systems). Recombinant human β-secretase will be called rhBACE (recombinant human β-site APP cleavage enzyme) (purchased from R&D systems).
# […] Cleavage by rhBACE was detected by reading emitted fluorescence level.
# In this assay system, fluorescence resonance energy transfer (FRET) technology was utilized. […] After pre-incubation, substrate and HC peptide mixture in assay buffer was transferred to FluoroNunc™ 96 well white plate (Nunc, Roskilde, Denmark), and rhBACE1 (70 nM) was added. Time-dependent emission of fluorescence (excitation at 320 nm, emission at 405 nm) was monitored in a Molecular Devices SpectraMax Gemini EM fluorescence reader (CA, USA) for 1 h at 37° C. All assays were carried out in duplicate.
# [6] = system: HEK293-APP cells
# Description: To overcome the problem of APP inhibitor's inability to penetrate across the cell membrane, APP inhibitors were coupled with oligo-arginine (R9 means 9 Arginines), which is known to be a transporter peptide. These coupled peptides were labeled with FITC (Fluorescein isothiocyanate) using a linker AHX (aminohexanoic acid) to investigate whether the inhibitors pass through the cell membrane.
# Oligo-arginine coupled APP inhibitors that were labeled with FITC were added to HEK293-APP cells to see whether the peptides pass through the cell membrane.
# [7] = target: T2, rhBACE1 (Homo sapiens, UniProt P56817); assay: ELISA binding of rhBACE1 to immobilized c-Sub M
# T2 construct: purchased R&D Systems
# T2 sequence (P56817 46-501): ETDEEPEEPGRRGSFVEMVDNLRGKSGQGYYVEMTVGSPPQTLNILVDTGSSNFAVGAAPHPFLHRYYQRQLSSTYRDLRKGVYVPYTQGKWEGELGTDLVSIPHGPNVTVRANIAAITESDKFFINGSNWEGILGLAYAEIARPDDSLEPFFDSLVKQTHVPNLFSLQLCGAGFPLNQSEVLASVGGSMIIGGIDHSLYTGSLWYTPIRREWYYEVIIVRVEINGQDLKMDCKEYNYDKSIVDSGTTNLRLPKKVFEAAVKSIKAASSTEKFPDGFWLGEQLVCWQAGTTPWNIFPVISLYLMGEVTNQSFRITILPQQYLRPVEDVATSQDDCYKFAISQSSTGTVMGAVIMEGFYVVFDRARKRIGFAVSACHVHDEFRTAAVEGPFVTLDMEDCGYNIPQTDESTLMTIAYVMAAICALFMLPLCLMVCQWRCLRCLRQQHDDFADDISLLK
# Description: In one embodiment of the present invention, four HC decapeptides targeted to either wild type APP or APPsw may be designed. […] Therefore, there is possibility that c-Sub M or any compounds derived from c-Sub M may inhibit production of Aβ from wild type APP in cells.
# [8] = target: T3, Sub-ST6Gal1 (DYEALTLQAKEFQMPKSQE) (Rattus norvegicus, UniProt P13721); assay: Binding of bio-Sub-ST6Gal1 to immobilized HC peptide; details: peptide coupled on microtiter plate
# T3 construct: 19 amino acid region (DYEALTL/QAKEFQMPKSQE) that contains the β-cleavage site for investigation was chosen; purchased Peptron, Inc; host or cells: chemical synthesis
# Description: as §2
# It was investigated if HC peptide would show specificity for APP in terms of the inhibition of cleavage by BACE1. ST6Gal1 is also cleaved by BACE1. For this experiment, 19 amino acid region (DYEALTL/QAKEFQMPKSQE) that contains the β-cleavage site for investigation was chosen. The 19 amino acid peptide was designated as Sub-ST6Gal1. […]
# [9] = target: T4, cleavage of Sub-ST6Gal1 by rhBACE1 (Rattus norvegicus, UniProt P13721); assay: HPLC analysis of cleavage of ST6Gal1 substrate by β-secretase; type: biochemical, human; details: up to 10 inhibitor/substrate ratio; Sub-ST6Gal1 50 μM, 500 nM rhBACE1
# T4 construct: Sub-ST6Gal1 (50 μM, DYEALTLQAKEFQMPKSQE) peptide corresponding to the β-cleavage site of ST6Gal1; purchased R&D Systems (enzyme); A&Pep Co., Inc. (non-labelled peptides)
# Description: (§3) One of the advantages of the APP inhibitor described in the present invention is that it is a peptide or a mimetic that bind to the β-secretase cleavage site of APP, thus not affecting other β-secretase substrates. To confirm the specificity of the inventive APP inhibitor, two different types of substrates were used, APP Sub M and ST6Gal1. Both substrates are cleaved by β-secretase under normal conditions and the effect of the inventive APP inhibitor on the substrate cleavage was monitored by HPLC (See the schematic diagram in FIG. 16.) To carry out these experiments, the concentration of β-secretase required for cleavage of both substrates was determined as shown in FIG. 17. For substantial cleavage of ST6Gal1 substrate, 420 nM of the enzyme was required. Therefore, 420 nM of β-secretase was used for the following experiment.
# Various concentrations of HC peptide were preincubated with either Sub M (50 μM) or Sub-ST6Gal1 (50 μM, DYEALTLQAKEFQMPKSQE) peptide corresponding to the β-cleavage site of ST6Gal1 for 2 h at RT. The mixtures containing Sub M was treated with 50 nM of rhBACE1 and that containing Sub-ST6Gal1 was treated with 500 nM enzyme for 12 h at RT. Roughly 50% of each BACE1 substrate was cleaved in the absence of HC peptide. The cleavage products were separated on a C18 reversed-phase HPLC column as described above.
# [10] = system: γ-secretase (membrane fractions of N2a cells); assay: γ-Secretase activity assay on membrane fractions of N2a cells; type: biochemical, mouse; details: 200 μM peptide, 12.5 μM fluorogenic substrate, 1 hour preincubation
# Description: Since γ-secretase is composed of four components, cloning of γ-secretase gene is impossible. Therefore, cell extracts were used as γ-secretase source. To obtain the cell extracts, after cell lysis with extraction buffer, the lysate was centrifuged at 10,000×g for 1 minute. Afterward, 2× reaction buffer and fluorogenic substrate was mixed and added to the cell lysate. Then, this mixture was incubated at 37° C. and γ-secretase activity was detected at excitation 335 to 355 nm and emission 495 to 510 nm.
# γ-Secretase activity assay was performed on membrane fractions of N2a cells in the presence of several complementary peptides. After 12.5 μM fluorogenic substrate and 200 μM each of the complementary peptides were preincubated for 1 hour, γ-secretase was added to the mixture. In the course of time, the fluorogenic substrate was cleaved by the γ-secretase.
# [11] = system: cleavage of Sub M by rhBACE1; assay: HPLC analysis of cleavage of Substrate M by β-secretase; type: biochemical; details: 25-fold amount of inhibitor; 420 nM β-secretase
# Description: Substrate M (100 μM) was preincubated with complementary peptides ([…]) in assay buffer (100 μl) overnight at RT. rhBACE (140 nM) in assay buffer was added and incubated for 11 hr at RT. Cleavage products of Substrate M by rhBACE were quantitated after separation by C-18 reversed-phase column chromatography (GRACE VyDAC).
# as §3
# Reversed-phase HPLC was also used to analyze the products of enzyme action in vitro. […] The cleavage products were identified at 215 nm and quantitated by integrating the area under each peak. […]
molecule,measurement,setting,value
"C[C@H](NC(=O)Cc1cc(F)cc(F)c1)C(=O)N[C@H](C(=O)OC(C)(C)C)c1ccccc1 [DAPT, N-[N-(3,5-difluorophenacetyl)-L-alanyl]-(S)-phenylglycine t-butyl ester]",inhibition of γ-secretase activity in cells,[1],inhibits γ-secretase activity very effectively
"SEFCIQIHFR-NH2 [c-Sub M, SEFCIQIHFR]",binding to Sub W relative to c-Sub W,[2]; bio-Sub W,4 fold
same,binding to Substrate W,"[2]; biotin-labeled Sub W, peptide immobilized on plate",binds the wild type substrate Sub W efficiently
same,inhibitory activity on APP processing,[3],does not inhibit the processing of APP in cells; also recorded: none of the inhibitors tested showed inhibitory activity
same,binding to Substrate M,[4],binds to Sub M appreciably and bind and binds its substrate Sub M and highest binding
same,binding to Substrate M,[4]; listed as c-Sub,bound
same,inhibition of cleavage of Substrate M by β-secretase,"[5]; in vitro, rhBACE1",inhibit cleavage
same,inhibitory activity group on Substrate M cleavage,[5],less activity
same,entry / transport into the cells,[6],does not enter the cells
same,binding to rhBACE1,[7],does not bind to rhBACE1
EFCIQIHF [c-Sub M ΔN1C1],binding of bio-Sub-ST6Gal1,[8],also bound
same,inhibitory activity on APP processing,[3],none of the inhibitors tested showed inhibitory activity
same,inhibition of cleavage of Sub-ST6Gal1,[9],about 10%
same,inhibitory activity group on Substrate M cleavage,[5],most active
PQQYRCHRQR [rCh2 (3′→5′)],inhibitory effect on γ-secretase activity,[10],about 80%
FCIQIHF (FCIQIHF-NH2) [c-Sub M ΔN2C1],inhibitory activity group on Substrate M cleavage,[5],most active
same,Sub M cleavage blocked,[11],about 60%
